Experimental findings from patent publication US20240368173A1, “TRICYCLIC GPR65 MODULATORS” (PATHIOS THERAPEUTICS LIMITED, priority 2021, published 2024) are described below.

The structures appear in SMILES notation.

For one assay, the target named is human recombinant GPR65 (Homo sapiens, UniProt Q8IYL9). The assay is described as follows: Human GPR65 cAMP HTRF antagonist assay. The class given is cell-based.
Sequence of human recombinant GPR65 (Q8IYL9 whole entry): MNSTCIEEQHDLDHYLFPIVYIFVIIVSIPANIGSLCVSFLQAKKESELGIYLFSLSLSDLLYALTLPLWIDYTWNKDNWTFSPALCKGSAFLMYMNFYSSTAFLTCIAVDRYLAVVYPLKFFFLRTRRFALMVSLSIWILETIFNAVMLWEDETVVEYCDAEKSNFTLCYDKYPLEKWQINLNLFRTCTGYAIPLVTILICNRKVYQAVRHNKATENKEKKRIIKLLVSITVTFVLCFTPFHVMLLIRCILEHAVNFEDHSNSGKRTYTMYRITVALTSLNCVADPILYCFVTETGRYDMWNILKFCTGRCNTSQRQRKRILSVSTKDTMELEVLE
Conditions: not given
A digest of the protocol:
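Antagonism measured as suppression of the cAMP rise when pH is dropped to 7.2 (control wells pH 7.9) in 1321N1 cells stably carrying human GPR65. Cells in KRH with 1 mM IBMX and 200 μM EDTA saw compound 30 min, then acid stimulation 30 min; HTRF cAMP detection, normalised, 4-parameter logistic IC50.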
On to `Cn1nnc2ccc(-c3cc(F)c(NC(=O)N4[C@H]5CC[C@@H]4c4n[nH]c(=O)cc4C5)cc3Cl)cc21` [Compound 141, (6S,9R)-N-(5-Chloro-2-fluoro-4-(1-methyl-1H-benzo[d][1,2,3]triazol-6-yl)phenyl)-3-oxo-3,5,6,7,8,9-hexahydro-2H-6,9-epiminocyclohepta[c]pyridazine-10-carboxamide], for which the IC50 was less than 500 nM. Still for that read-out and setting: the same measure for `O=C(Nc1cc(Cl)c(-c2ccc3nonc3c2)cc1F)N1C2CCC1C(F)(F)c1c2ccnc1F` (racemic) [Compound 289, (±)-N-(4-(Benzo[c][1,2,5]oxadiazol-5-yl)-5-chloro-2-fluorophenyl)-1,9,9-trifluoro-6,7,8,9-tetrahydro-5H-5,8-epiminocyclohepta[c]pyridine-10-carboxamide]: less than 500 nM. On the same count and under the same terms, the same measure for `O=C(Nc1cc(Cl)c(-c2ccc(F)nc2)cc1F)N1[C@H]2CC[C@@H]1c1c[nH]c(=O)cc1C2` [Compound 172, (6S,9R)-N-(5-Chloro-2-fluoro-4-(6-fluoropyridin-3-yl)phenyl)-3-oxo-3,5,6,7,8,9-hexahydro-2H-6,9-epiminocyclohepta[c]pyridine-10-carboxamide]: less than 500 nM. Still for that read-out and setting: the same measure for `COc1ccc(-c2cc(F)c(NC(=O)N3[C@H]4CC[C@@H]3c3c[nH]c(=O)cc3C4)cc2Cl)cn1` [Compound 184, (6S,9R)-N-(5-Chloro-2-fluoro-4-(6-methoxypyridin-3-yl)phenyl)-3-oxo-3,5,6,7,8,9-hexahydro-2H-6,9-epiminocyclohepta[c]pyridine-10-carboxamide]: less than 500 nM; for `O=C(Nc1cc(Cl)c(-c2ccc3nonc3c2)cn1)N1[C@H]2CC[C@@H]1c1n[nH]c(=O)cc1C2` [Compound 238, (6S,9R)-N-(5-(Benzo[c][1,2,5]oxadiazol-5-yl)-4-chloropyridin-2-yl)-3-oxo-3,5,6,7,8,9-hexahydro-2H-6,9-epiminocyclohepta[c]pyridazine-10-carboxamide]: less than 500 nM. For `O=C1Cc2ccc(-c3cc(F)c(NC(=O)N4[C@H]5CC[C@@H]4c4n[nH]c(=O)cc4C5)cc3Cl)cc2N1` [Compound 153, (6S,9R)-N-(5-Chloro-2-fluoro-4-(2-oxoindolin-6-yl)phenyl)-3-oxo-3,5,6,7,8,9-hexahydro-2H-6,9-epiminocyclohepta[c]pyridazine-10-carboxamide], the half-inhibitory concentration (IC50) was less than 500 nM. Still for that read-out and setting: in the case of `O=C(Nc1cc(Cl)c(-c2cncc(CF)c2)cc1F)N1[C@H]2CC[C@@H]1c1n[nH]c(=O)cc1C2` [Compound 311, (6S,9R)—N-(5-Chloro-2-fluoro-4-(5-(fluoromethyl)pyridin-3-yl)phenyl)-3-oxo-3,5,6,7,8,9-hexahydro-2H-6,9-epiminocyclohepta[c]pyridazine-10-carboxamide] it was less than 500 nM. The same measure, in the same setting: the same measure for `N#Cc1cc(NC(=O)N2C3CCC2c2n[nH]c(=O)cc2C3)ccc1C(F)(F)F` (racemic) [Compound 11, (±)-N-(3-Cyano-4-(trifluoromethyl)phenyl)-3-oxo-3,5,6,7,8,9-hexahydro-2H-6,9-epiminocyclohepta[c]pyridazine-10-carboxamide]: less than 500 nM; for `O=C(Nc1cc(Cl)c(-c2cc(F)c3nonc3c2)cc1F)N1[C@H]2CC[C@@H]1c1n[nH]c(=O)cc1C2` [Compound 323, (6S,9R)-N-(5-Chloro-2-fluoro-4-(7-fluorobenzo[c][1,2,5]oxadiazol-5-yl)phenyl)-3-oxo-3,5,6,7,8,9-hexahydro-2H-6,9-epiminocyclohepta[c]pyridazine-10-carboxamide]: less than 500 nM.

The assay is the same for the next values; noted with them: 1321N1-hrGPR65 cells, cAMP HTRF, assay pH 7.2; read-out: hGPR65 IC50 (Activity of selected compounds according to the invention).
`O=C(Nc1cc(Cl)c(Cl)cc1F)N1[C@@H]2CC[C@H]1[C@@H](F)c1ccnc(F)c12` (racemic) [Compound 284, ±(5-endo)-N-(4,5-dichloro-2-fluorophenyl)-1,5-difluoro-6,7,8,9-tetrahydro-5H-6,9-epiminocyclohepta[c]pyridine-10-carboxamide]: the half-maximal inhibitory concentration (IC50) lay within 500 to 5000 nM. Still for that read-out and setting: in the case of `N#Cc1cnccc1-c1cc(F)c(NC(=O)N2[C@H]3CC[C@@H]2c2n[nH]c(=O)cc2C3)cc1Cl` [Compound 179, (6S,9R)-N-(5-Chloro-4-(3-cyanopyridin-4-yl)-2-fluorophenyl)-3-oxo-3,5,6,7,8,9-hexahydro-2H-6,9-epiminocyclohepta[c]pyridazine-10-carboxamide] it was 500 to 5000 nM; in that of `Cc1ncc(-c2ccc(NC(=O)N3[C@H]4CC[C@@H]3c3ccnc(F)c3C4)cc2)o1` [Compound 56, (5R,8S)-1-Fluoro-N-(4-(2-methyloxazol-5-yl)phenyl)-6,7,8,9-tetrahydro-5H-5,8-epiminocyclohepta[c]pyridine-10-carboxamide], 500 to 5000 nM.

Consider `O=C(Nc1cc(Cl)c(Cl)cc1F)N1[C@@H]2CC[C@H]1c1n[nH]c(=O)cc1C2` [Compound 21, (6R,9S)-N-(4,5-Dichloro-2-fluorophenyl)-3-oxo-3,5,6,7,8,9-hexahydro-2H-6,9-epiminocyclohepta[c]pyridazine-10-carboxamide], for which the 50% inhibitory concentration (IC50) fell in the range of 500 to 5000 nM. Still for that read-out and setting: in the case of `O=C1NCc2cc(-c3cc(F)c(NC(=O)N4[C@H]5CC[C@@H]4c4n[nH]c(=O)cc4C5)cc3Cl)ccc21` [Compound 142, (6S,9R)-N-(5-Chloro-2-fluoro-4-(1-oxoisoindolin-5-yl)phenyl)-3-oxo-3,5,6,7,8,9-hexahydro-2H-6,9-epiminocyclohepta[c]pyridazine-10-carboxamide] it was more than 5000 nM.
